Measured values reported in ChEMBL document CHEMBL3739261, “Synthesis and antibacterial activity evaluation of C-5 side chain modified analogues of FYL-66, a potential agent against methicillin-resistant Staphylococcus aureus” (Medchemcomm, 2015).
≈ marks a conversion by molar mass, not a printed value.

Legend:
Staphylococcus aureus [1] = experiment: Antibacterial activity against methicillin-susceptible Staphylococcus aureus ATCC 25923 incubated for 18 hrs by broth microdilution method; format: functional; details: ATCC 25923, 18 h
Staphylococcus aureus [2] = experiment: Antibacterial activity against methicillin-susceptible Staphylococcus aureus CMCC 2603 incubated for 18 hrs by broth microdilution method; format: functional; details: CMCC 2603, 18 h
Staphylococcus aureus [3] = experiment: Antibacterial activity against methicillin-susceptible Staphylococcus aureus ATCC 29213 incubated for 18 hrs by broth microdilution method; format: functional; details: ATCC 29213, 18 h
Staphylococcus aureus [4] = experiment: Antibacterial activity against methicillin-susceptible Staphylococcus aureus ATCC 6538 incubated for 18 hrs by broth microdilution method; format: functional; details: ATCC 6538, 18 h
Staphylococcus aureus [5] = experiment: Antibacterial activity against methicillin-resistant Staphylococcus aureus ATCC 33591 incubated for 18 hrs by broth microdilution method; format: functional; details: ATCC 33591, 18 h
Staphylococcus aureus [6] = experiment: Antibacterial activity against methicillin-resistant Staphylococcus aureus ATCC 43300 incubated for 18 hrs by broth microdilution method; format: functional; details: ATCC 43300, 18 h
Escherichia coli = experiment: Antibacterial activity against Escherichia coli ATCC 25922 incubated for 18 hrs by broth microdilution method; format: functional; details: ATCC 25922, 18 h
Pseudomonas aeruginosa = experiment: Antibacterial activity against Pseudomonas aeruginosa ATCC 27853 incubated for 18 hrs by broth microdilution method; format: functional; details: ATCC 27853, 18 h
[7] = Cytotoxicity against HEK293A cells after 48 hrs by MTT assay; format: cell-based; details: Homo sapiens, HEK293-A
[8] = Cytotoxicity against human L02 cells after 48 hrs by MTT assay; format: cell-based; details: L02, 48 h
[9] = Solubility of compound in distilled water after 24 hrs by HPLC analysis; format: physicochemical
[10] = Octanol/water partition coefficient, log P of the compound by HPLC assay; format: physicochemical

| SMILES | MIC (Staphylococcus aureus [1]) [µg/mL] | MIC (Staphylococcus aureus [2]) [µg/mL] | MIC (Staphylococcus aureus [3]) [µg/mL] | MIC (Staphylococcus aureus [4]) [µg/mL] | MIC (Staphylococcus aureus [5]) [µg/mL] | MIC (Staphylococcus aureus [6]) [µg/mL] | MIC (Escherichia coli) [µg/mL] | MIC (Pseudomonas aeruginosa) [µg/mL] | IC50 [7] [µg/mL] | IC50 [8] [µg/mL] | solubility at 24 h [9] [µM] | logP [10] |
| --- | --- | --- | --- | --- | --- | --- | --- | --- | --- | --- | --- | --- |
| CCNC(=O)NC[C@H]1CN(c2ccc(-n3cc(-c4ccccn4)cn3)c(F)c2)C(=O)O1 | 8 (≈ 18.8 µM) | 8 (≈ 18.8 µM) | 8 (≈ 18.8 µM) | 8 (≈ 18.8 µM) | 8 (≈ 18.8 µM) | 8 (≈ 18.8 µM) | > 32 | > 32 | 29 (≈ 68.3 µM) | > 400 | 222 (≈ 94.1 µg/mL) | 2.45 |
| O=C(OC[C@H]1CN(c2ccc(-n3cc(-c4ccccn4)cn3)c(F)c2)C(=O)O1)c1ccccc1 | > 32 | > 32 | > 32 | > 32 | > 32 | > 32 | > 32 | > 32 | > 400 | > 400 | ≤ 65.4 | 4.21 |
| O=C1O[C@@H](Cn2ccnn2)CN1c1ccc(-n2cc(-c3ccccn3)cn2)c(F)c1 | 4 (≈ 9.87 µM) | 4 (≈ 9.87 µM) | 4 (≈ 9.87 µM) | 4 (≈ 9.87 µM) | 4 (≈ 9.87 µM) | 4 (≈ 9.87 µM) | > 32 | > 32 | 225 (≈ 555 µM) | 49 (≈ 121 µM) | 247 (≈ 100 µg/mL) | 2 |
| CCC(=O)NC[C@H]1CN(c2ccc(-n3cc(-c4ccccn4)cn3)c(F)c2)C(=O)O1 | 4 (≈ 9.77 µM) | 4 (≈ 9.77 µM) | 4 (≈ 9.77 µM) | 4 (≈ 9.77 µM) | 4 (≈ 9.77 µM) | 4 (≈ 9.77 µM) | > 32 | > 32 | 389 (≈ 950 µM) | 204 (≈ 498 µM) | 147 (≈ 60 µg/mL) | 2.2 |
| O=C1O[C@@H](CN2CCN(CCO)CC2)CN1c1ccc(-n2cc(-c3ccccn3)cn2)c(F)c1 | > 32 | > 32 | > 32 | > 32 | > 32 | > 32 | > 32 | > 32 | > 400 | > 400 | 125 (≈ 58.1 µg/mL) | 1.09 |
| NC(=O)[C@H]1CN(c2ccc(-n3cc(-c4ccccn4)cn3)c(F)c2)C(=O)O1 | 16 (≈ 43.6 µM) | 16 (≈ 43.6 µM) | 16 (≈ 43.6 µM) | 16 (≈ 43.6 µM) | 16 (≈ 43.6 µM) | 16 (≈ 43.6 µM) | > 32 | > 32 | 152 (≈ 414 µM) | 119 (≈ 324 µM) | 27.2 (≈ 9.99 µg/mL) | 1.59 |
| O=C1O[C@@H](CN2CCOCC2)CN1c1ccc(-n2cc(-c3ccccn3)cn2)c(F)c1 | > 32 | > 32 | > 32 | > 32 | > 32 | > 32 | > 32 | > 32 | > 400 | > 400 | 109 (≈ 46.2 µg/mL) | 2 |
| O=C1O[C@@H](CN2CCC(c3ccc(F)cc3)CC2)CN1c1ccc(-n2cc(-c3ccccn3)cn2)c(F)c1 | > 32 | > 32 | > 32 | > 32 | > 32 | > 32 | > 32 | > 32 | > 400 | > 400 | ≤ 19.4 | 5.78 |
| COC[C@H]1CN(c2ccc(-n3cc(-c4ccccn4)cn3)c(F)c2)C(=O)O1 | > 32 | > 32 | > 32 | > 32 | > 32 | > 32 | > 32 | > 32 | > 400 | > 400 | 36.2 (≈ 13.3 µg/mL) | 2.18 |
| CN(CCC#N)C[C@H]1CN(c2ccc(-n3cc(-c4ccccn4)cn3)c(F)c2)C(=O)O1 | > 32 | > 32 | > 32 | > 32 | > 32 | > 32 | > 32 | > 32 | > 400 | > 400 | 64.5 (≈ 27.1 µg/mL) | 1.9 |
| O=C(CF)NC[C@H]1CN(c2ccc(-n3cc(-c4ccccn4)cn3)c(F)c2)C(=O)O1 | 4 (≈ 9.68 µM) | 4 (≈ 9.68 µM) | 4 (≈ 9.68 µM) | 4 (≈ 9.68 µM) | 4 (≈ 9.68 µM) | 4 (≈ 9.68 µM) | > 32 | > 32 | > 400 | 106 (≈ 256 µM) | 61.8 (≈ 25.5 µg/mL) | 1.29 |
| O=C1CNC(=O)N1C[C@H]1CN(c2ccc(-n3cc(-c4ccccn4)cn3)c(F)c2)C(=O)O1 | > 32 | > 32 | > 32 | > 32 | > 32 | > 32 | > 32 | > 32 | > 400 | > 400 | 1630 (≈ 713 µg/mL) | 1.25 |
| CC(=O)OC[C@H]1CN(c2ccc(-n3cc(-c4ccccn4)cn3)c(F)c2)C(=O)O1 | > 32 | > 32 | > 32 | > 32 | > 32 | > 32 | > 32 | > 32 | > 400 | > 400 | 373 (≈ 148 µg/mL) | 2.09 |
| CNC(=O)[C@H]1CN(c2ccc(-n3cc(-c4ccccn4)cn3)c(F)c2)C(=O)O1 | 8 (≈ 21 µM) | 8 (≈ 21 µM) | 8 (≈ 21 µM) | 8 (≈ 21 µM) | 16 (≈ 42 µM) | 16 (≈ 42 µM) | > 32 | > 32 | 342 (≈ 897 µM) | 217 (≈ 569 µM) | 26.2 (≈ 9.99 µg/mL) | 1.39 |
| O=CNC[C@H]1CN(c2ccc(-n3cc(-c4ccccn4)cn3)c(F)c2)C(=O)O1 | 8 (≈ 21 µM) | 8 (≈ 21 µM) | 8 (≈ 21 µM) | 8 (≈ 21 µM) | 8 (≈ 21 µM) | 8 (≈ 21 µM) | > 32 | > 32 | > 400 | > 400 | 217 (≈ 82.8 µg/mL) | 1.19 |
| COC(=O)CC1CCN(C[C@H]2CN(c3ccc(-n4cc(-c5ccccn5)cn4)c(F)c3)C(=O)O2)CC1 | > 32 | > 32 | > 32 | > 32 | > 32 | > 32 | > 32 | > 32 | 224 (≈ 454 µM) | > 400 | 92.1 (≈ 45.5 µg/mL) | 1.78 |
| CCN1CCN(C[C@H]2CN(c3ccc(-n4cc(-c5ccccn5)cn4)c(F)c3)C(=O)O2)CC1 | > 32 | > 32 | > 32 | > 32 | > 32 | > 32 | > 32 | > 32 | 99 (≈ 220 µM) | 99 (≈ 220 µM) | 706 (≈ 318 µg/mL) | 2.19 |
| CN(CCO)C[C@H]1CN(c2ccc(-n3cc(-c4ccccn4)cn3)c(F)c2)C(=O)O1 | > 32 | > 32 | > 32 | > 32 | > 32 | > 32 | > 32 | > 32 | 367 (≈ 892 µM) | 134 (≈ 326 µM) | 669 (≈ 275 µg/mL) | 1.44 |
| O=C1O[C@@H](CO)CN1c1ccc(-n2cc(-c3ccccn3)cn2)c(F)c1 | – | – | – | – | – | – | – | – | > 400 | 59 (≈ 167 µM) | 56.4 (≈ 20 µg/mL) | 1.67 |
